{"source": "paper PMC12595484", "about": "“Optimizing multifunctional fluorescent ligands for intracellular labeling” (Proceedings of the National Academy of Sciences of the …, 2025)", "tested_on": "U2OS cells expressing HaloTag fusion proteins", "assay": "Live-cell labeling of HaloTag fusions at different subcellular locations, Airyscan microscopy", "format": "cell-based", "conditions": "100 nM, 1 h", "protocol": "Fig. 4. Evaluation of live-cell labeling of biotin–rhodamine–HaloTag ligands 13HTL–16HTL. Airyscan fluorescence microscopy images of U2OS cells expressing HaloTag fusion proteins at different subcellular locations, incubated with 100 nM 13HTL–16HTL for 1 h followed by fixation, counterstaining with Hoechst 33342 (gray) and imaging. Columns indicate different HaloTag fusion proteins: (A–D) Cell-surface-localized HaloTag–PDGFR; (E–H) Outer mitochondrial membrane-localized HaloTag–TOMM20; (I–L) Endoplasmic reticulum membrane-localized HaloTag–Sec61β; (M–P) Nucleus-localized HaloTag–histone H2B. Rows indicate different ligands: (A,E,I, and M) biotin–JF549–HaloTag ligand (13HTL; yellow); (B, F, J, and N) biotin–JF608–HaloTag ligand (14HTL; red); (C, G, K, and O) biotin–JF646–HaloTag ligand (15HTL; magenta); (D, H, L, and P) biotin–JF635–HaloTag ligand (16HTL; magenta). […]\nindicated in the product information12 and from a previous publication.13 For labeling with biotin-JF-HaloTag ligands 13HTL–16HTL, cells were incubated with 100 nM or 1 µM ligand for 0.5–2 h at 37 °C. […] For quantitation of labeling intensity, ROIs were drawn surrounding individual HEK cells, and the average fluorescence ratio (JF/msGFP) from multiple cells in each condition was measured; no background subtraction was necessary.\nU2OS cell culture, labeling, and fluorescence microscopy. […]"}
{"smiles": "O=C(CCCCC1SCC2NC(=O)NC21)NCCOCCOCCNC(=O)C1C[N+](=c2ccc3c(-c4cc(C(=O)NCCOCCOCCCCCCCl)ccc4C(=O)[O-])c4ccc(N5CCC5)cc4oc-3c2)C1", "note": "(stereo not shown) [13HTL, biotin–JF549–HaloTag ligand]", "values": [{"measurement": "labeling of HaloTag fusions (PDGFR, TOMM20, Sec61β, histone H2B)", "value": "low intracellular signals, only labeling the cell-surface-localized PDGFR–HaloTag fusion"}]}
